The results in this text go back to US20210253582A1, “SALTS AND SOLID FORMS AND PROCESSES OF PREPARING A PI3K INHIBITOR” (Incyte Corporation, priority 2020, published 2021).

This test deals with T1, PI3K (Homo sapiens, UniProt O00329).
T1 construct: purchased Millipore (Bedford, Mass.)
The experiment in a line: PI3K enzyme assays (at least one assay described herein). The settings on record: according to at least one assay described herein; assay not specified. It is filed as biochemical. The source says:
PI3-Kinase luminescent assay kit including lipid kinase substrate, D-myo-phosphatidylinositol 4,5-bisphosphate (PtdIns(4,5)P2)D (+)-sn-1,2-di-O-octanoylglyceryl, 3-O-phospho linked (PIP2), biotinylated I(1,3,4,5)P4, PI(3,4,5)P3 Detector Protein is purchased from Echelon Biosciences (Salt Lake City, Utah). AlphaScreen™ GST Detection Kit including donor and acceptor beads was purchased from PerkinElmer Life Sciences (Waltham, Mass.). PI3Kδ (p110δ/p85α) is purchased from Millipore (Bedford, Mass.). ATP, MgCl2, DTT, EDTA, HEPES and CHAPS are purchased from Sigma-Aldrich (St. Louis, Mo.).
The kinase reaction are conducted in 384-well REMP plate from Thermo Fisher Scientific in a final volume of 40 μL. Inhibitors are first diluted serially in DMSO and added to the plate wells before the addition of other reaction components. The final concentration of DMSO in the assay is 2%. The PI3K assays are carried out at room temperature in 50 mM HEPES, pH 7.4, 5 mM MgCl2, 50 mM NaCl, 5 mM DTT and CHAPS 0.04%. […] The activity of the product is determined on Fusion-alpha microplate reader (Perkin-Elmer). […]
The kinase reactions are conducted in clear-bottom 96-well plate from Thermo Fisher Scientific in a final volume of 24 μL. […] After the plate sealing, the radioactivity of the product is determined by scintillation counting on Topcount (Perkin-Elmer). […]

The structures appear in SMILES notation.

T1 sequence (O00329 whole entry): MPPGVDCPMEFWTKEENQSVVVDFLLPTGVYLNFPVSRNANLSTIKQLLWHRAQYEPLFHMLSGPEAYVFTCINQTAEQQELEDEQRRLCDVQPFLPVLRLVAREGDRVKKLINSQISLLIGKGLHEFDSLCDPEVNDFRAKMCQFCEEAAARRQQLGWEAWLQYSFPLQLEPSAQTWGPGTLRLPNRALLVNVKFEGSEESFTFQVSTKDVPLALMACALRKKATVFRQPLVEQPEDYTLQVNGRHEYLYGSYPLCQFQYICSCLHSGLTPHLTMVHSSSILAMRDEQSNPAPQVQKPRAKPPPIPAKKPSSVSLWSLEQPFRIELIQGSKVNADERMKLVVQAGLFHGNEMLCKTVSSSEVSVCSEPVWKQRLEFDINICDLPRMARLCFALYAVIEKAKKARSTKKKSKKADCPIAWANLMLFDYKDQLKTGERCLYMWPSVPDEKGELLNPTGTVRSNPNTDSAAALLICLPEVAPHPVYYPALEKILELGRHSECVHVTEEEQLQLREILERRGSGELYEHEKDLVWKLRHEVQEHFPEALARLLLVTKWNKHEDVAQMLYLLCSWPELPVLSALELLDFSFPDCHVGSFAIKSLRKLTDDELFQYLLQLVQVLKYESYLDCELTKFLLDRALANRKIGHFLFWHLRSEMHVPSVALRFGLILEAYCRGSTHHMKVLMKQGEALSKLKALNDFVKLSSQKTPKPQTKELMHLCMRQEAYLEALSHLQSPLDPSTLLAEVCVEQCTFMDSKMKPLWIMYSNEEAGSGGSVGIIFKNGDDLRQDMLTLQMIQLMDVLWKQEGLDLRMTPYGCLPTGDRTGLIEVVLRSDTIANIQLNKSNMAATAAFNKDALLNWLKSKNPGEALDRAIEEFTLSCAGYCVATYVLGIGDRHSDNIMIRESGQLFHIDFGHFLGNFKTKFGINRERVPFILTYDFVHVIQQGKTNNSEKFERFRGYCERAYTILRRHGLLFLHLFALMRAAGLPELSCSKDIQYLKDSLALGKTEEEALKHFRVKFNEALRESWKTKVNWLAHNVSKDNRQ
T1 sequence (P27986 whole entry partner): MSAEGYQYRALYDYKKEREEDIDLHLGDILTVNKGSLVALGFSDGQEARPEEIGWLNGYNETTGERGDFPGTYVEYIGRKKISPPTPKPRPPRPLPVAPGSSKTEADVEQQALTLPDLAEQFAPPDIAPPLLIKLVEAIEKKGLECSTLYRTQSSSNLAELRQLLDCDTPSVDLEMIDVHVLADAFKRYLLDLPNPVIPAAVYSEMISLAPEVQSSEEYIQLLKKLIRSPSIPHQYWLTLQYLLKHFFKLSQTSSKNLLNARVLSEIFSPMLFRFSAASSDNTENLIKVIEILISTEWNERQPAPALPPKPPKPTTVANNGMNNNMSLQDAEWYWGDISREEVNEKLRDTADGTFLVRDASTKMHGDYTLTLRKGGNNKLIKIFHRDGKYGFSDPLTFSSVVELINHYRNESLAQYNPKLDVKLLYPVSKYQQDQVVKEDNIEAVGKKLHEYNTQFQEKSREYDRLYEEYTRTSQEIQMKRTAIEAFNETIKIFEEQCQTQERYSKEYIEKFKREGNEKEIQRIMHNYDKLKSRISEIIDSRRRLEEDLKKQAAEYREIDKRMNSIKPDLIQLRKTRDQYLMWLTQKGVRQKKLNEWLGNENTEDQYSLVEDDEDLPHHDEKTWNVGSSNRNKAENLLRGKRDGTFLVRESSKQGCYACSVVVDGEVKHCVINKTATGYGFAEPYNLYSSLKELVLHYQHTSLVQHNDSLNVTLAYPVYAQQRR

Consider `CCOc1c([C@H](C)n2nc(C)c3c(N)ncnc32)cc(Cl)c(F)c1[C@@H]1CNC(=O)O1` [compound of Formula I, (R)-5-(3-((S)-1-(4-amino-3-methyl-1H-pyrazolo[3,4-d]pyrimidin-1-yl)ethyl)-5-chloro-2-ethoxy-6-fluorophenyl)oxazolidin-2-one], for which the “PI3K inhibition (qualitative statement)” value is “found to be PI3K inhibitors”.
